We go through six molecules from patent US20250186652A1, “ARTICLES AND METHODS FOR IMPROVED TISSUE HEALING” (UNIVERSITY OF MISSISSIPPI MEDICAL CENTER, priority 2022, published 2025).

One data set concerns MRC-5 fibroblast cells. Briefly: In vitro fibroblast proliferation/viability with M6P and TGF-β1. It is filed as cell-based. The text has this:
FIGS. 8A-B show images illustrating that M6P competes with TGFβ. (A) Use of MRC-5 fibroblast cells in an in vitro assessment of concentration effects of TGFβ and M6P as well as effectiveness of M6P to block the proliferative effects of TGFβ. (B) Schematic showing potential mechanism of M6P and TGFβ competing for the same M6P receptor that leads to increase gene regulation.

Data set [1] concerns human dermal fibroblast and keratinocyte. The following applies: Clavel, Barragan-Montero et al. 2005; cited from earlier work.
The test system of another data set is human tenocytes. Conditions: in vitro; Wong, Tang et al. 2003; cited from earlier work.
A further data set concerns Hif-1 alpha. Briefly: Inhibition of Hif-1 alpha leading to CTGF in vitro. The text has this: Fructose-1,6-bisphosphate (FBP) is an intermediate in glycolysis which, if provided to cells could allow them to bypass two ATP-requiring steps for energy production. […] M6P is known to isomerize to fructose-6-phosphate (F6P), an intermediate of glycolysis in the step prior to FBP (FIG. 1). Therefore, one might hypothesize that treatment with M6P may decrease production of CTGF by decreasing the need for substrate-level phosphorylation, which would be vital in hypoxic conditions. In this regard, the present inventors have shown that […] produces the inhibition of Hif-1 alpha leading to CTGF in vitro. Alternatively, latent TGF-β is activated through its binding with the M6P/IGFII receptor (Ghahary, Tredget et al. 1999). Competitive inhibition of the activation of TGF-β through treatment with M6P is considered another method by which M6P may inhibit fibrosis. It is thought that M6P may have more potential for reducing fibrosis than FBP because its mechanism of action is not dependent upon a hypoxic environment.

The next data set deals with CTGF. Conditions: cells under hypoxic conditions; Haung, Adah et al. 2009; cited from earlier work.
Another data set concerns digital flexor tendons. The following applies: three weeks after operation; vs operated controls; cited from earlier work.

As to “TGF-β1: TGF-β1 growth factor added to fibroblast cells [reference compound]”, the cell proliferation entry in the data set with MRC-5 fibroblast cells (TGF-β1 added at 8 pM) is recorded as “enhanced cell proliferation”. In addition, the “toxicity to the cells” value with MRC-5 fibroblast cells (TGF-β1 at the higher doses) was “toxic”. For `O=C[C@@H](O)[C@@H](O)[C@H](O)[C@H](O)COP(=O)(O)O` [M6P, mannose 6 phosphate], in the data set with MRC-5 fibroblast cells (0.05 μM M6P), the “cell proliferation of fibroblast cells” value is “enhance cell proliferation” and the “toxic effect on fibroblast cells” value is “without evidence of a toxic effect”. The TGF-β1-induced proliferation entry with MRC-5 fibroblast cells (M6P added along with TGF-β1) is on record as “increased proliferation was eliminated”. Further, in data set [1], the inhibition of proliferation result is recorded as “potent inhibitor”. Regarding `C[C@@H]1C[C@H]2[C@@H]3CCC4=CC(=O)C=C[C@]4(C)[C@@]3(F)[C@@H](O)C[C@]2(C)[C@@]1(O)C(=O)CO` [dexamethasone], the “tenocyte viability, mitotic activity and collagen production” value with human tenocytes is recorded as “negative effects”. Regarding `O=C(CO)[C@@H](O)[C@H](O)[C@H](O)COP(=O)(O)O` [F6P, fructose 6 phosphate], the “inhibition of Hif-1 alpha leading to CTGF” value in the data set with Hif-1 alpha is given as “inhibition”. `O=C(COP(=O)(O)O)[C@@H](O)[C@H](O)[C@H](O)COP(=O)(O)O` [FBP, Fructose-1,6-bisphosphate]: the “production of CTGF” value in the data set with CTGF is “decreases production of CTGF to near control conditions”.

B1: PDGF-BB: platelet-derived growth factor-BB, controlled release from fibrin-based delivery system (protein, UniProt P01127 82-190, looked up)
Platelet-derived growth …: SLGSLTIAEPAMIAECKTRTEVFEISRRLIDRTNANFLVWPPCVEVQRCSGCCNNRNVQCRPTQVQLRPVQVRKIEIVRKKPIFKKATVTLEDHLACKCETVAAARPVT
For the molecule B1, the “range of motion (ROM)” value with digital flexor tendons is reported as “significantly greater ROM”.
